As usually defined, the IC50 is the concentration that gives 50% inhibition. Read a high IC50 as a need for much substance.

Here are results for 1 compound from US20230381349A1, “METHODS AND COMPOSITIONS FOR IMAGING AND TREATING CANCER” (WASHINGTON UNIVERSITY, priority 2020, published 2023).

For assay [1], the system named is KI cells. In words: In vitro cytotoxicity (WST-1 cell viability) assay. Particulars: Mus musculus, 72 h, 3 days continuous drug treatment. The format is cell-based. As to the method: All cells were cultured at 37° C., 5% C02, and 95% humidity.
The KI Cells were seeded into 96-well plates at a density of 5000 cells per well. 24 hrs later, the medium was replaced by fresh medium containing TA-PEG-Gem and Gem at the indicated concentration (range, 0-500 μM), respectively. All experimental incubation conditions were performed at least in triplicate. Cell viability was determined after 3 days of continuous drug treatment using the WST-1 cell cytotoxicity assay (Roche, Basel, Switzerland) following the manufacturer's instruction. Briefly, 10 μl WST-1 reagent was added in each well followed by additional incubation for 4 h. The absorbance at 440 nm was measured using a microplate reader. IC50 was calculated using GraphPad Prism 7.03 software (GraphPad Software, San Diego, CA).
Background: Formazan colour is commonly taken as a measure of viable cells.

The test system of assay [2] is KI tumor. In words: Treatment efficacy in KI xenograft model. The format is in vivo, mouse. Particulars: for median survival: KI mice. Here is the method: A KI xenograft model was used to monitor tumor growth trends and treatment efficacy of CuNPs-ECL1i-Gem. 10 days after tumor implantation, mice were randomized into 5 groups (n=5/group): (1) CuNPs-ECL1i-Gem (Cu mass: 10 mg/kg body weight, Gem: 3.4±0.8 mg/kg body weight, I.V. injection, twice per week); (2) CuNPs-ECL1i (same CuNPs-NT dose as (1), I.V. injection, twice per week); (3) gemcitabine 7 mg/kg body weight (I.V. injection, twice per week); (4) gemcitabine 100 mg/kg body weight (I. P. injection, once per week); (5) saline (100 μL, I.V. injection, twice per week). For the 2nd treatment study, the mice started dose administration at 7 days post implantation. The dose regimens of CuNPs-NT-Gem and CuNPs-ECL1i-Gem were the same as the 1st treatment study. The Cu mass was limited to a dosage of 10 mg/kg for all nanoparticle groups, and the relative loaded gemcitabine dose was 3.4±0.8 mg/kg body weight. […] Tumor volume was calculated as (length×width2)/2. The treatment was continued for 6 successive weeks or until the mice died or were sacrificed and deemed as dead when their tumor volume reached over 2000 mm^3. After treatment, the tumors were collected for H&E staining.

Compound `Nc1ccn([C@@H]2O[C@H](CO)[C@@H](O)C2(F)F)c(=O)n1` [Gem, gemcitabine] yielded an IC50 in assay [1] of 19.7 µM. The median survival in assay [2] (start day 10, high dose 100 mg/kg I.P. once per week) turned out to be 26 days; in assay [2] (start day 10, low dose 7 mg/kg I.V. twice per week) it was 25 days. Also, the “tumor growth effect compared to saline” value in assay [2] (start day 10, high dose 100 mg/kg I.P.) is on record as “did not show any treatment benefit”; in assay [2] (start day 10, low dose 7 mg/kg I.V.), “did not show any treatment benefit”.
